According to patent US20240122941A1, “THERAPY BASED ON SYNTHETIC LETHALITY IN SWI/SNF COMPLEX-DYSFUNCTION CANCER” (NATIONAL CANCER CENTER, priority 2020, published 2024):
Where two headings read alike, the source gives them in different places.

How the values were obtained:
[1] = system: G-401 cells (malignant rhabdoid tumor derived, SMARCB1 deficient); assay: Cell growth suppression experiment (CellTiter-Glo), G-401 cells; conditions: for cell survival rate (%) at treatment with 10 μM, G-401: G-401 cells, 10 μM (maximum treatment concentration), 3 days; for IC50: Homo sapiens, G-401, 72 h
Procedure: (§1) G-401 cells and G-402 cells were cultured under the conditions of 5% CO2 at 37° C. in a 10% fetal bovine serum and 1% penicillin/streptomycin-containing McCoy's 5A medium. CHLA-06-ATRT cells were cultured under the conditions of 5% CO2 at 37° C. in a 10% B-27 supplement, 20 ng/mL EGF, 20 ng/mL FGF, and 1% penicillin/streptomycin-containing DMEM:F12 medium.

[2] = system: DMS114 cells (small cell lung cancer derived, SMARCA2/A4 deficient); assay: Cell growth suppression experiment (CellTiter-Glo), DMS114 cells; type: cell-based; conditions: for IC50: Homo sapiens, DMS-114, 144 h, cultured for 6 days, CellTiter-Glo; for cell growth suppression effect on DMS114 cells: result in words
[3] = system: TOV112D cells (small cell ovarian cancer derived, SMARCA2/A4 deficient); assay: Cell growth suppression experiment (CellTiter-Glo), TOV112D cells; type: cell-based; conditions: for cell survival rate (%) at treatment with 10 μM, TOV112D: 6 days; for IC50: Homo sapiens, 144 h, cultured for 6 days, CellTiter-Glo;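 as to all read-outs here: luminescent viability read-out of TOV112D cells grown in DMEM-F12 with 10% fetal bovine serum, compound exposure starting one day after plating, DMSO at 0.1% final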
[4] = system: H23 cells (pulmonary adenocarcinoma derived, SMARCA2/A4 deficient); assay: Cell growth suppression experiment (CellTiter-Glo), H23 cells; type: cell-based; conditions: for cell survival rate (%) at treatment with 10 μM, H23: 6 days; for IC50: Homo sapiens, NCI-H23, 144 h, cultured for 6 days, CellTiter-Glo;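 as to all read-outs here: compounds tested as CBP/P300 agents, added one day after plating in 96-well plates with DMEM-F12 plus 10% fetal bovine serum, 0.1% DMSO final, luminescent viability read-out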
[5] = system: H460 cells (pulmonary adenocarcinoma derived, SMARCA2/A4 wild-type); assay: Cell growth suppression experiment (CellTiter-Glo), H460 cells; type: cell-based; conditions: Homo sapiens, NCI-H460, 144 h; for viability at 10 µM: 6 days, read-out: cell survival rate (%) at treatment with 10 μM, H460; for IC50: cultured for 6 days, CellTiter-Glo;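 as to all read-outs here: luminescent viability read-out, compound added one day after seeding at 0.1% final DMSO, cells grown in DMEM-F12 with 10% fetal bovine serum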
[6] = system: JMU-RTK-2 cells (malignant rhabdoid tumor derived, SMARCB1 deficient); assay: Selectivity in cell growth suppression, JMU-RTK-2 cells; conditions: for IC50: 144 h; for Selective Index: IC50 of JMU-RTK-2+SMARCB1 cells with respect to IC50 of JMU-RTK-2 cells
Excerpt: (§2) The cytotoxic activity of a CBP/P300 inhibitor on JMU-RTK-2 cells and JMU-RTK-2+SMARCB1 cells was compared.

[7] = system: JMU-RTK-2+SMARCB1 cells (JMU-RTK-2 cells overexpressing SMARCB1); assay: Selectivity in cell growth suppression, JMU-RTK-2+SMARCB1 cells; conditions: 144 h
Excerpt: as §2

CBP bromodomain = CBP bromodomain (Homo sapiens (Human), UniProt Q92793); assay: BRD inhibition experiment, CBP bromodomain TR-FRET Assay Kit
Sequence of CBP bromodomain (Q92793 1085-1192): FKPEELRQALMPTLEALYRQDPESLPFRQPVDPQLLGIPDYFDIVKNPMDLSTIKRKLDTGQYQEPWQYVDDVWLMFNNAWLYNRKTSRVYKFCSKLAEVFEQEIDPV

[8] = system: 786-O cells (renal cancer derived, SMARCB1 wild-type); assay: Cell growth suppression experiment (CellTiter-Glo), 786-O cells; conditions: Homo sapiens, 786-0, 72 h; for IC50: read-out: IC50 786-O; for viability at 10 µM: read-out: cell survival rate (%) at treatment with 10 μM, 786-O
Procedure: as §1

[9] = system: ARID1 deficient cancer cell group versus ARID1 wild-type cell group; assay: Experiment comparing sensitivity depending on the presence/absence of ARID1; type: cell-based; conditions: 6 days culture, CellTiter-Glo, FIG. 12; result in words
Excerpt: Cytotoxic activity of a CBP/P300 inhibitor on ARID1 deficient cancer cells, i.e., A2780 cells (ovarian cancer derived), RMG-V cells (ovarian cancer derived), TOV21G cells (ovarian cancer derived), and OVISE cells (ovarian cancer derived), and ARID1 wild-type cells, i.e., H1048 cells, H460 cells, 786-O cells, H2228 cells, H2009 cells, and H358 cells, was compared.

[10] = system: histone H3K27 acetylation in G-401 cells and CHLA-06-ATRT cells; assay: Intracellular histone H3K27 acetylation inhibition experiment (Western blotting); type: cell-based; conditions: G-401 and CHLA-06-ATRT cells, 24 hours, FIG. 7
Procedure: G-401 cells (malignant rhabdoid tumor derived) and CHLA-06-ATRT cells (atypical teratoid/rhabdoid tumor derived) were seeded on a 6-well plate at 500000 cells per well. […] After completion of culture, the cells were detached through trypsin treatment. The culture was centrifuged and the supernatant was removed to recover cell pellets. 150 μL of RIPA buffer was added to the cell pellets to lyse the cells to extract the entire protein. Acetylation of histone H3K27 was detected by Western blotting. An anti-acetylation H3K27 antibody (Cell Signaling Technology, 8173) was used for the detection of acetylated H3K27 (FIG. 7).

[11] = system: SMARCB1 deficient cell group versus SMARCB1 wild-type cell group; assay: Experiment comparing sensitivity depending on the presence/absence of SMARCB1; type: cell-based; conditions: 6 days culture, CellTiter-Glo, FIG. 3; result in words
Excerpt: Cytotoxic activity of a CBP/P300 inhibitor on SMARCB1 deficient cells, i.e., G-401 cells (malignant rhabdoid tumor derived), G-402 cells (malignant rhabdoid tumor derived), JMU-RTK-2 cells (malignant rhabdoid tumor derived), and HS-EU-1 cells (epithelioid sarcoma derived), and SMARCB1 wild-type cells, i.e., 786-O cells (renal cancer derived), VMRC-RCZ cells (renal cancer derived), Caki-1 cells (renal cancer derived), H446 cells (lung cancer derived), ES2 cells (ovarian cancer derived), H460 cells (lung cancer derived), H2228 cells (lung cancer derived), HEK293T cells (normal kidney tissue derived), and H358 cells (lung cancer derived) was compared.

[12] = system: CHLA-06-ATRT cells (atypical teratoid/rhabdoid tumor derived, SMARCB1 deficient); assay: Cell growth suppression experiment (CellTiter-Glo), CHLA-06-ATRT cells; conditions: 72 h, read-out: IC50 CHLA-06-ATRT
Procedure: as §1

[13] = system: SMARCB1 deficient cells, i.e., G-401 cells, G-402 cells, and CHLA-06-ATRT cells; assay: Cell growth suppression experiment, SMARCB1 deficient cells (summary of Example 1); conditions: G-401, G-402 and CHLA-06-ATRT cells versus 786-O cells; result in words
Procedure: as §1

[14] = system: SMARCA2/A4 deficient cells, i.e., H23 cells, DMS114 cells, and TOV112D cells; assay: Cell growth suppression experiment, SMARCA2/A4 deficient cells (summary of Example 8); type: cell-based; conditions: H23, DMS114 and TOV112D cells versus H460 cells; result in words
Procedure: Cytotoxic activity of a CBP/P300 on SMARCA2/A4 deficient cells, i.e., H23 cells (pulmonary adenocarcinoma derived), TOV112D cells (small cell ovarian cancer derived), and DMS114 cells (small cell lung cancer derived), and SMARCA2/A4 wild-type cells, i.e., H460 cells (pulmonary adenocarcinoma derived) was compared.
H23 cells, TOV112D cells, DMS114 cells, and H460 cells were cultured under 5% CO2 conditions at 37° C. in a 10% fetal bovine serum and 1% penicillin/streptomycin-containing DMEM-F12 medium.
Cells were seed on a 96-well plate at 250 to 500 cells per well. […] After completion of culture, the cell survival rate was measured using CellTiter-Glo Luminescent Cell Viability Assay (Promega, G770).

recombinant p300 = recombinant p300 (Homo sapiens (Human), UniProt Q09472); assay: HAT activity inhibiting experiment, SensoLyte HAT (p300) Assay Kit; type: biochemical; conditions: recombinant p300, acetyl-CoA, histone H3 peptide, fluorescence; read-out: HAT activity inhibition IC50
Sequence of recombinant p300 (Q09472 whole entry): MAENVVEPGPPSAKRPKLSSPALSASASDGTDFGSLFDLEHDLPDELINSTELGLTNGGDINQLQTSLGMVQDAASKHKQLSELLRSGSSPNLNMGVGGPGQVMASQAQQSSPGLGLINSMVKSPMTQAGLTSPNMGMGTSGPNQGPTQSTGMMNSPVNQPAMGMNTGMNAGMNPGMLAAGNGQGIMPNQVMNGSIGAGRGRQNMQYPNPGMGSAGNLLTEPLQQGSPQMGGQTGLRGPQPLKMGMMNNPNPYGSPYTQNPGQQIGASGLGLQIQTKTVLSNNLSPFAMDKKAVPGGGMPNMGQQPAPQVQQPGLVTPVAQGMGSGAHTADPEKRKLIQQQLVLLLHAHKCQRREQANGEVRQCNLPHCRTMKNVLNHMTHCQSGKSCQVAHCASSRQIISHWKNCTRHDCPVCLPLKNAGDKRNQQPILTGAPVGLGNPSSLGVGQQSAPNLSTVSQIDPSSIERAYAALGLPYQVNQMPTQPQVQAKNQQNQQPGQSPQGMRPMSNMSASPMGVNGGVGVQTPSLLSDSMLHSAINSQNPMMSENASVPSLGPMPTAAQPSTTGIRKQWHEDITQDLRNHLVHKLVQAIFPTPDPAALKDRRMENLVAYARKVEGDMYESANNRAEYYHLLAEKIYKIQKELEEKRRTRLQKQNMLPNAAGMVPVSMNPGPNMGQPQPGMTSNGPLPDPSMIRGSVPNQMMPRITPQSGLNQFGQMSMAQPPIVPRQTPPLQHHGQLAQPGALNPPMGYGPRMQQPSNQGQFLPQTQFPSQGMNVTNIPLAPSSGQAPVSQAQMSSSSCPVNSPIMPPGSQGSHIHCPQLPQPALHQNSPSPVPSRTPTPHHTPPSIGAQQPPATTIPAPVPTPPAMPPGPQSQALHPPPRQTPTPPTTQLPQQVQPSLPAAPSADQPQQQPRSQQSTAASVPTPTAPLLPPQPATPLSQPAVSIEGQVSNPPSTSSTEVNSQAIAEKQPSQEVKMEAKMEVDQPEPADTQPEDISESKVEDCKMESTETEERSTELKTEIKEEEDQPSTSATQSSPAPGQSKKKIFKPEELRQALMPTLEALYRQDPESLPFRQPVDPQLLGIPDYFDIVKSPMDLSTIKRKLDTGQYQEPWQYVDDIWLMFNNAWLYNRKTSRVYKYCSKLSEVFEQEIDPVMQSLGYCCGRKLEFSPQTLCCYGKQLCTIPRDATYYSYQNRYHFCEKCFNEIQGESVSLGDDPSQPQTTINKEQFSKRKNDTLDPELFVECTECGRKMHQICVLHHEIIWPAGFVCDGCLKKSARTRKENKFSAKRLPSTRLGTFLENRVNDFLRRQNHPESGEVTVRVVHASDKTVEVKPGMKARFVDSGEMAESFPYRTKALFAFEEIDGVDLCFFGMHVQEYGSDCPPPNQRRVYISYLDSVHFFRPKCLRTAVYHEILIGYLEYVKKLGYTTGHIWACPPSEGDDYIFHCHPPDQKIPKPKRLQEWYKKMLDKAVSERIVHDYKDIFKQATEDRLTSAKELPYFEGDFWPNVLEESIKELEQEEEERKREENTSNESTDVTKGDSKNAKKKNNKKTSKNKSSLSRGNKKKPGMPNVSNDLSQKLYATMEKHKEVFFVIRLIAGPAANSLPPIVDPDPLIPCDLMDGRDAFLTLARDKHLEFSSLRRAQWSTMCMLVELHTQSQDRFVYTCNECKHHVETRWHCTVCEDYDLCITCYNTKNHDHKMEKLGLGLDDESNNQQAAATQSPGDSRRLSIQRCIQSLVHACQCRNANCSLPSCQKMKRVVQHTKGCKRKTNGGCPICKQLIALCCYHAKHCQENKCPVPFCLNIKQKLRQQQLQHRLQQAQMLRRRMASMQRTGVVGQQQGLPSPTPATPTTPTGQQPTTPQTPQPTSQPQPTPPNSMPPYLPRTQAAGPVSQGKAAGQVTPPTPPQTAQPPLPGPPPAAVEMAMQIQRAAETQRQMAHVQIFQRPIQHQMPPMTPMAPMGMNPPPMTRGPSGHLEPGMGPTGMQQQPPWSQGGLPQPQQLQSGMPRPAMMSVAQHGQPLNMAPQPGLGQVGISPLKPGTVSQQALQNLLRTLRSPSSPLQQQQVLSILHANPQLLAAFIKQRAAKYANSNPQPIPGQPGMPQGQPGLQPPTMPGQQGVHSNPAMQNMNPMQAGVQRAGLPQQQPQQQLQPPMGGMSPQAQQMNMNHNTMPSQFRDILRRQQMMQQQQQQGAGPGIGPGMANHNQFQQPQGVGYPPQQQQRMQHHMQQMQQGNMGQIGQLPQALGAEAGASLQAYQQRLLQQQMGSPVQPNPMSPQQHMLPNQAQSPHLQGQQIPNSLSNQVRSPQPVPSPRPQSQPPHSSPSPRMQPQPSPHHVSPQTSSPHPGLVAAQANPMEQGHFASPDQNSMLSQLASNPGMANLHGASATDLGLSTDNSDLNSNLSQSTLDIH
Procedure: 50 μL of Stop Solution was added to quench the reaction. 100 μL of p300 Developer solution diluted 50-fold with an assay buffer was added, and the mixture was incubated for 30 minutes at room temperature under shaded conditions.

[15] = read-out: IC50 G-401, G-401 cells, cultured for 3 days, CellTiter-Glo cell survival
[16] = read-out: JMU-RTK-2 IC50, JMU-RTK-2 cells, cultured for 6 days, CellTiter-Glo
[17] = read-out: JMU-RTK-2 + SMARCB1 IC50, JMU-RTK-2+SMARCB1 cells, cultured for 6 days, CellTiter-Glo
[18] = read-out: JMU-RTK-2 + SMARCB1 IC50

| Compound | IC50 ([2]; DMS114 cells) [nM] | IC50 [4] [nM] | viability at 10 µM [5] [%] | IC50 [5] [nM] | IC50 [8] [nM] | viability at 10 µM [8] [%] | cell growth suppression effect on SMARCB1 deficient cells [13] | cell growth suppression effect on SMARCA2/A4 deficient cells [14] | IC50 ([1]; read-out: IC50 G-401) [nM] | IC50 [3] [nM] | IC50 (recombinant p300) [nM] | IC50 ([6]; read-out: JMU-RTK-2 IC50) [nM] | Selective Index [6] | IC50 [7, 18] [nM] | other results |
| --- | --- | --- | --- | --- | --- | --- | --- | --- | --- | --- | --- | --- | --- | --- | --- |
| CNC(=O)N1CCc2c(c(N3CCCc4cc(-c5cnn(C)c5)c(C(F)F)cc43)nn2C2CCOCC2)C1 [Compound 8] | 4010 | > 10000 | 101 | > 10000 | > 10000 | 92 | – | – | – | – | – | – | – | – | cell survival rate (%) at treatment with 10 μM, G-401 [1]: 65%; IC50 [1, 15]: > 10000 nM; cell growth suppression effect on DMS114 cells [2]: cell growth suppression effect; cell survival rate (%) at treatment with 10 μM, TOV112D [3]: 91%; IC50 ([3]; TOV112D): > 10000 nM; cell survival rate (%) at treatment with 10 μM, H23 [4]: 77%; IC50 [6, 16]: 900 nM; IC50 [7, 17]: 9100 nM; IC50 (CBP bromodomain): < 25 nM |
| CO[C@H]1CC[C@H](n2c([C@@H]3CCCC(=O)N3c3ccc(F)c(F)c3)nc3cc(-c4c(C)noc4C)ccc32)CC1 [CCS-1477, reference compound] | – | – | – | – | – | – | – | – | – | – | – | – | – | – | IC50 value for the ARID1 deficient cancer cell group compared with the ARID1 wild-type cell group [9]: less than the IC50 value for the ARID1 wild-type cell group |
| COc1ccc(CCc2nc3cc(-c4c(C)noc4C)ccc3n2C[C@H](C)N2CCOCC2)cc1Cl [SGC-CBP30, reference compound] | – | – | – | – | – | – | – | – | – | – | – | – | – | – | intracellular histone H3K27 acetylation [10]: reduced treatment concentration dependent intracellular histone H3K27 acetylation; IC50 value for the SMARCB1 deficient cell group compared with the SMARCB1 wild-type cell group [11]: less than the IC50 value for the SMARCB1 wild-type cell group |
| C[C@H](N(Cc1ccc(F)cc1)C(=O)CN1C(=O)N[C@]2(CCc3cc(-c4cnn(C)c4)ccc32)C1=O)C(F)(F)F [Compound 14] | 330 | 1260 | 89 | > 10000 | > 10000 | 74 | selective and potent Cell growth suppression effect | particularly selective and potent cell growth suppression effect | – | – | – | – | – | – | IC50 [1, 15]: 150 nM; IC50 [12]: 1300 nM; IC50 ([3]; TOV112D): 1020 nM; IC50 [6, 16]: 12 nM; IC50 [7, 17]: 5200 nM |
| O=C(Nc1ccc2[nH]ncc2n1)C1CC(F)CN1C(=O)C1(c2ccc(OC(F)F)cc2)CCC(F)(F)CC1 (stereo not shown) [Compound 5] | 408 | 1420 | 99 | > 10000 | > 10000 | 102 | selective and potent Cell growth suppression effect | particularly selective and potent cell growth suppression effect | 440 | 1500 | 100 | 200 | 45.3 | 8800 | – |
| CCN(CC)c1ccc(-c2nc3cc(C(=O)NC)ccc3n2Cc2ccn(CC)n2)cn1 [Compound 6] | 138 | 1130 | 92 | > 10000 | > 10000 | 83 | selective and potent Cell growth suppression effect | particularly selective and potent cell growth suppression effect | 260 | 729 | 160 | 55 | 23.5 | 1300 | – |
| Cn1cc(-c2ccc3c(c2)CC[C@]32NC(=O)N(CC(=O)N3Cc4cc(F)ccc4OC[C@H]3C(F)(F)F)C2=O)cn1 [Compound 15] | 90.9 | 407 | 78 | > 10000 | > 10000 | 51 | selective and potent Cell growth suppression effect | particularly selective and potent cell growth suppression effect | 41 | 309 | 48 | 3.8 | 912 | 3400 | IC50 [12]: 420 nM |
| Cn1cc(C(=O)Nc2ccc3c(c2)OCCO3)c2ccccc2c1=O [Compound 12] | > 10000 | > 10000 | 100 | > 10000 | > 10000 | 104 | – | – | > 10000 | > 10000 | – | 3900 | 3.9 | 14900 | cell survival rate (%) at treatment with 10 μM, G-401 [1]: 83%; cell survival rate (%) at treatment with 10 μM, DMS114 ([2]; DMS114 cells, 10 μM, 6 days): 86%; cell growth suppression effect on DMS114 cells [2]: cell growth suppression effect; cell survival rate (%) at treatment with 10 μM, TOV112D [3]: 99%; cell survival rate (%) at treatment with 10 μM, H23 [4]: 97%; IC50 (CBP bromodomain): < 25 nM |
